The structures appear in SMILES notation.

This assay has as its system HEK293T cells carrying the ATF4 luciferase reporter. Nature of the assay: ATF4-Luc assay, in vitro model of Vanishing Cell White Matter Disease (VWMD). Particulars: Homo sapiens, HEK-293T, 1 μg/mL tunicamycin, 7 hours, One Glo luminescence. In kind it is cell-based. The procedure, abridged: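 Stable HEK293T line with human ATF4 5′-UTR–firefly luciferase reporter treated with 1 μg/mL tunicamycin plus 200 nM compound for 7 h. Luminescence read; EC50 derived.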
Take `O=C(COc1ccc(F)c(F)c1)NC12CC(Nc3cncc(-c4cccnc4)n3)(C1)C2` [Compound 743, 2-(3,4-difluorophenoxy)-N-(3-{[6-(pyridin-3-yl)pyrazin-2-yl]amino}bicyclo[1.1.1]pentan-1-yl)acetamide]: the EC50 is over 2 µM.

As for `Cc1cc(C)nc(C(=O)NC23CC(NC(=O)COc4ccc(Cl)c(F)c4)(C2)C3)c1` [Compound 889, N-{3-[2-(4-chloro-3-fluorophenoxy)acetamido]bicyclo[1.1.1]pentan-1-yl}-4,6-dimethylpyridine-2-carboxamide], the EC50 is 1 to 2 µM.

With `O=C(COc1ccc(Cl)c(F)c1)NC12CC(NC(=O)c3ccc(F)cn3)(C1)C2` [Compound 262, N-{3-[2-(4-chloro-3-fluorophenoxy)acetamido]bicyclo[1.1.1]pentan-1-yl}-5-fluoropyridine-2-carboxamide], the EC50 lay in the range of 0.05 to 0.25 µM.

`CN(CC1CCC1)c1cnc(C(=O)NC23CC(NC(=O)COc4ccc(Cl)c(F)c4)(C2)C3)cn1` [Compound 420, N-{3-[2-(4-chloro-3-fluorophenoxy)acetamido]bicyclo[1.1.1]pentan-1-yl}-5-[(cyclobutylmethyl)(methyl)amino]pyrazine-2-carboxamide]: the EC50 is over 2 µM.

Regarding `Cc1cc(C)c(C(=O)NC23CC(NC(=O)COc4ccc(Cl)c(F)c4)(C2)C3)cn1` [Compound 815, N-{3-[2-(4-chloro-3-fluorophenoxy)acetamido]bicyclo[1.1.1]pentan-1-yl}-4,6-dimethylpyridine-3-carboxamide], the EC50 is over 2 µM.

Regarding `O=C(COc1ccc(Cl)c(F)c1)NC12CC(NC(=O)c3cn[nH]c3)(C1)C2` [Compound 310, N-{3-[2-(4-chloro-3-fluorophenoxy)acetamido]bicyclo[1.1.1]pentan-1-yl}-1H-pyrazole-4-carboxamide], the EC50 is over 2 µM.

In the case of `Cc1nc(C(=O)NC23CCC(NC(=O)COc4ccc(Cl)c(F)c4)(CC2)C(O)C3)nn1C` (stereo not shown) [Compound 657, N-{4-[2-(4-chloro-3-fluorophenoxy)acetamido]-3-hydroxybicyclo[2.2.2]octan-1-yl}-1,5-dimethyl-1H-1,2,4-triazole-3-carboxamide], the EC50 was over 2 µM.

With `Cc1cnc(C(=O)NC23CC(NC(=O)COc4ccc(Cl)c(F)c4)(C2)C3)nc1` [Compound 268, N-{3-[2-(4-chloro-3-fluorophenoxy)acetamido]bicyclo[1.1.1]pentan-1-yl}-5-methylpyrimidine-2-carboxamide], the EC50 lay within 0.05 to 0.25 µM.

As for `CCc1noc(C(=O)NC23CCC(NC(=O)COc4ccc(Cl)c(F)c4)(CC2)C(O)C3)n1` (stereo not shown) [Compound 567, N-{4-[2-(4-chloro-3-fluorophenoxy)acetamido]-3-hydroxybicyclo[2.2.2]octan-1-yl}-3-ethyl-1,2,4-oxadiazole-5-carboxamide], the EC50 lay within 0.05 to 0.25 µM.

As to `O=C(COc1ccc(Cl)c(F)c1)NC12CCC(NC(=O)c3cn4cc(F)ccc4n3)(CC1)CC2O` (stereo not shown) [Compound 600, N-{4-[2-(4-chloro-3-fluorophenoxy)acetamido]-3-hydroxybicyclo[2.2.2]octan-1-yl}-6-fluoroimidazo[1,2-a]pyridine-2-carboxamide], the EC50 fell in the range of 0.25 to 1 µM.

Consider `O=C(COc1ccc(Cl)c(F)c1)NC12CC(NC(=O)c3ccc(/C=C/C4CC4)cn3)(C1)C2` [Compound 283, N-{3-[2-(4-chloro-3-fluorophenoxy)acetamido]bicyclo[1.1.1]pentan-1-yl}-5-[(E)-2-cyclopropylethenyl]pyridine-2-carboxamide], for which the EC50 is under 0.05 µM.

As to `CCOc1ccc(C(=O)NC23CC(NC(=O)COc4ccc(Cl)c(F)c4)(C2)C3)cc1` [Compound 351, N-{3-[2-(4-chloro-3-fluorophenoxy)acetamido]bicyclo[1.1.1]pentan-1-yl}-4-ethoxybenzamide], the EC50 lay in the range of 0.05 to 0.25 µM.

Turning to `Cc1ccc2nc(C(=O)NC34CCC(NC(=O)COc5ccc(Cl)c(F)c5)(CC3)C(O)C4)cn2c1` (stereo not shown) [Compound 597, N-{4-[2-(4-chloro-3-fluorophenoxy)acetamido]-3-hydroxybicyclo[2.2.2]octan-1-yl}-6-methylimidazo[1,2-a]pyridine-2-carboxamide], the EC50 lay in the range of 0.25 to 1 µM.

On to `O=C(COc1ccc(Cl)c(F)c1)NC12CC(Nc3cccc4cnccc34)(C1)C2` [Compound 490, 2-(4-chloro-3-fluorophenoxy)-N-{3-[(isoquinolin-5-yl)amino]bicyclo[1.1.1]pentan-1-yl}acetamide], for which the half-maximal effective concentration (EC50) was in the range of 0.05 to 0.25 µM.

`Cc1csc(C(=O)NC23CCC(NC(=O)COc4ccc(Cl)c(F)c4)(CC2)C(O)C3)c1` (stereo not shown) [Compound 622, N-{4-[2-(4-chloro-3-fluorophenoxy)acetamido]-3-hydroxybicyclo[2.2.2]octan-1-yl}-4-methylthiophene-2-carboxamide]: the 50% effective concentration (EC50) was under 0.05 µM.

Turning to `Cc1cc(C)n2nc(C(=O)NC34CCC(NC(=O)COc5ccc(Cl)c(F)c5)(CC3)[C@@H](O)C4)nc2n1` [Compound 750, N-{(3S)-4-[2-(4-chloro-3-fluorophenoxy)acetamido]-3-hydroxybicyclo[2.2.2]octan-1-yl}-5,7-dimethyl[1,2,4]triazolo[1,5-a]pyrimidine-2-carboxamide], the EC50 is over 2 µM.

For `CC(C)(O)CCc1ccnc(C(=O)NC23CC(NC(=O)COc4ccc(Cl)c(Cl)c4)(C2)C3)c1` [Compound 433, N-{3-[2-(3,4-dichlorophenoxy)acetamido]bicyclo[1.1.1]pentan-1-yl}-4-(3-hydroxy-3-methylbutyl)pyridine-2-carboxamide], the concentration giving a half-maximal response (EC50) is over 2 µM.

As to `O=C(COc1ccc(Cl)c(F)c1)NC12CC(NC(=O)c3c[nH]c4ccccc34)(C1)C2` [Compound 313, N-{3-[2-(4-chloro-3-fluorophenoxy)acetamido]bicyclo[1.1.1]pentan-1-yl}-1H-indole-3-carboxamide], the EC50 lay within 0.05 to 0.25 µM.

Consider `O=C(COc1ccc(Cl)c(F)c1)NC12CCC(NC(=O)c3ccccc3)(CC1)[C@@H](O)C2` [Compound 484, N-{(2S)-4-[2-(4-chloro-3-fluorophenoxy)acetamido]-2-hydroxybicyclo[2.2.2]octan-1-yl}benzamide], for which the concentration for a half-maximal effect (EC50) lay within 0.05 to 0.25 µM.

`CC(=O)N1CCC(c2ncc(C(=O)NC34CC(NC(=O)COc5ccc(Cl)c(Cl)c5)(C3)C4)o2)CC1` [Compound 149, 2-(1-acetylpiperidin-4-yl)-N-{3-[2-(3,4-dichlorophenoxy)acetamido]bicyclo[1.1.1]pentan-1-yl}-1,3-oxazole-5-carboxamide]: the EC50 lay within 1 to 2 µM.

Consider `Cc1ccc(C(=O)NC23CCC(NC(=O)COc4ccc(Cl)c(F)c4)(CC2)C(O)C3)s1` (stereo not shown) [Compound 621, N-{4-[2-(4-chloro-3-fluorophenoxy)acetamido]-3-hydroxybicyclo[2.2.2]octan-1-yl}-5-methylthiophene-2-carboxamide], for which the EC50 fell in the range of 0.05 to 0.25 µM.

With `O=C(COCc1cccc(Cl)c1)NC12CC(NC(=O)c3cnc(C(F)F)cn3)(C1)C2` [Compound 947, N-(3-{2-[(3-chlorophenyl)methoxy]acetamido}bicyclo[1.1.1]pentan-1-yl)-5-(difluoromethyl)pyrazine-2-carboxamide], the EC50 is over 2 µM.

Take `Cc1ccc(C(=O)NC23CC(NC(=O)COc4ccc(Cl)c(F)c4)(C2)C3)cc1CO` [Compound 452, N-{3-[2-(4-chloro-3-fluorophenoxy)acetamido]bicyclo[1.1.1]pentan-1-yl}-3-(hydroxymethyl)-4-methylbenzamide]: the EC50 lay in the range of 0.25 to 1 µM.

As to `O=C(COc1ccc(Cl)c(F)c1)NC12CCC(NC(=O)c3ccc(OC(F)(F)F)nc3)(CC1)CC2O` (stereo not shown) [Compound 451, N-{4-[2-(4-chloro-3-fluorophenoxy)acetamido]-3-hydroxybicyclo[2.2.2]octan-1-yl}-6-(trifluoromethoxy)pyridine-3-carboxamide], the EC50 was under 0.05 µM.

On to `O=C(COc1ccc(Cl)c(F)c1)NC12CCC(NC(=O)c3cc(C(F)F)no3)(CC1)CC2O` (stereo not shown) [Compound 632, N-{4-[2-(4-chloro-3-fluorophenoxy)acetamido]-3-hydroxybicyclo[2.2.2]octan-1-yl}-3-(difluoromethyl)-1,2-oxazole-5-carboxamide], for which the EC50 is under 0.05 µM.

On to `Cn1nnc2cc(C(=O)NC34CC(NC(=O)COc5ccc(Cl)c(F)c5)(C3)C4)ccc21` [Compound 785, N-{3-[2-(4-chloro-3-fluorophenoxy)acetamido]bicyclo[1.1.1]pentan-1-yl}-1-methyl-1H-benzotriazole-5-carboxamide], for which the EC50 is over 2 µM.

Take `O=C(COc1ccc(Cl)c(F)c1)NC12CC(NC(=O)c3cnc4[nH]ncc4c3)(C1)C2` [Compound 608, N-{3-[2-(4-chloro-3-fluorophenoxy)acetamido]bicyclo[1.1.1]pentan-1-yl}-1H-pyrazolo[3,4-b]pyridine-5-carboxamide]: the EC50 lay in the range of 0.05 to 0.25 µM.

Take `O=C(COc1ccc(Cl)c(F)c1)NC12CC(Nc3cncc(-c4ccc(Cl)cc4)n3)(C1)C2` [Compound 395, 2-(4-chloro-3-fluorophenoxy)-N-(3-{[6-(4-chlorophenyl)pyrazin-2-yl]amino}bicyclo[1.1.1]pentan-1-yl)acetamide]: the EC50 is over 2 µM.

In the case of `Cc1ncc(C(=O)NC23CC(NC(=O)COc4ccc(Cl)c(F)c4)(C2)C3)s1` [Compound 285, N-{3-[2-(4-chloro-3-fluorophenoxy)acetamido]bicyclo[1.1.1]pentan-1-yl}-2-methyl-1,3-thiazole-5-carboxamide], the EC50 was 0.05 to 0.25 µM.

With `Cc1nc(C(=O)NC23CC(NC(=O)COc4ccc(Cl)c(F)c4)(C2)C3)c(C)o1` [Compound 795, N-{3-[2-(4-chloro-3-fluorophenoxy)acetamido]bicyclo[1.1.1]pentan-1-yl}-2,5-dimethyl-1,3-oxazole-4-carboxamide], the EC50 was over 2 µM.

Turning to `O=C(COc1ccc(Cl)c(F)c1)NC12CCC(NC(=O)c3ccc(C4CC4)cn3)(CC1)CC2O` (stereo not shown) [Compound 938, N-{4-[2-(4-chloro-3-fluorophenoxy)acetamido]-3-hydroxybicyclo[2.2.2]octan-1-yl}-5-cyclopropylpyridine-2-carboxamide], the EC50 lay within 0.05 to 0.25 µM.

Source of the values: US10913727B2, “Modulators of the integrated stress pathway” (Calico Life Sciences LLC, priority 2016, dated 2021).
